Measured values reported in BigSolDB 2.1.

c1ccc(-n2c3ccccc3c3ccccc32)cc1
solubility (mole fraction)
Settings | 283.15 K | 288.15 K | 293.15 K | 298.15 K | 303.15 K | 308.15 K | 313.15 K | 318.15 K | 323.15 K
in dimethyl carbonate | 0.054 | 0.0631 | 0.0771 | 0.0967 | 0.113 | 0.145 | 0.175 | 0.232 | 0.294
in ethyl acetate | 0.0902 | 0.109 | 0.125 | 0.14 | 0.162 | 0.197 | 0.238 | 0.286 | 0.337
in ethyl lactate | 0.0336 | 0.0362 | 0.0422 | 0.0502 | 0.0617 | 0.0731 | 0.0916 | 0.111 | 0.139
in isobutanol | 0.00379 | 0.00416 | 0.00494 | 0.00582 | 0.00684 | 0.00814 | 0.00922 | 0.0109 | 0.0133
in isobutyl acetate | 0.114 | 0.132 | 0.151 | 0.177 | 0.197 | 0.235 | 0.271 | 0.32 | 0.38
in isopentanol | 0.00614 | 0.00721 | 0.00852 | 0.0101 | 0.0125 | 0.0154 | 0.0201 | 0.0253 | 0.0339
in isopropyl acetate | 0.0729 | 0.0842 | 0.0983 | 0.111 | 0.133 | 0.163 | 0.198 | 0.238 | 0.291
in methyl acetate | 0.0727 | 0.0874 | 0.103 | 0.128 | 0.161 | 0.199 | 0.237 | 0.277 | 0.354
in n-butyl acetate | 0.113 | 0.129 | 0.146 | 0.167 | 0.186 | 0.225 | 0.26 | 0.306 | 0.355
in n-pentanol | 0.0091 | 0.0106 | 0.0122 | 0.0147 | 0.0173 | 0.0212 | 0.0252 | 0.0309 | 0.0417
in n-propyl acetate | 0.0761 | 0.0873 | 0.101 | 0.119 | 0.139 | 0.16 | 0.194 | 0.231 | 0.278
in sec-butanol | 0.00405 | 0.00482 | 0.00607 | 0.00774 | 0.00939 | 0.0119 | 0.0148 | 0.0202 | 0.0278
